Reference: paper PMC5515859, “Metabolism of F18, a Derivative of Calanolide A, in Human Liver Microsomes and Cytosol” (Frontiers in Pharmacology, 2017)

Columns and labels:
human liver microsomes = experiment: Incubation of F18 with human liver microsomes, metabolite profiling by LC-MS/MS; format: in vitro ADME; parameters: key: +: Metabolite detected; −: metabolite not detected; conditions: F18 50 μM, 1 h
Protocol: (§1) A stock solution of F18 (5 mM) was prepared in methanol. F18 (50 μM) was incubated with RLMs/DLMs/MLMs/HLMs and HLcy (0.5 mg protein/mL) in 50 mM Tris-HCl buffer containing 5 mM MgCl2 (pH 7.4) in a final volume of 200 μL. The final concentration of methanol in the incubation system was 1% (v/v). After 3 min of preincubation at 37°C, the reactions were initiated by the addition of NADPH-regenerating system (10-mM β-NADP, 100-mM 6-G-P and 10-U/mL 6-G-P-DH) or NADH. After incubation for 1 h, the reactions were terminated by the addition of two volumes of ice-cold acetonitrile. Samples without NADPH or NADH were included as controls. The incubation mixture was vortexed and centrifuged at 13,300 × g for 5 min. A 10 μL aliquot of the supernatant was injected into an LC-tandem mass spectrometer (LC-MS/MS) for analysis.
(§2) Metabolic profiling studies were performed with a Finnigan TSQ Quantum MS instrument with an electrospray ionization probe and a Finnigan SURVEYOR HPLC system (Thermo Finnigan, San Jose, CA, USA). HPLC was performed with a Zorbax SB-C18 column (2.1 × 100 mm, 3.5 μm, Agilent Corporation, CA, USA) with a column temperature of 35°C and a flow rate of 200 μL/min. F18 and its metabolites were eluted using a linear gradient method with a mobile phase consisting of solvent A (water with 0.1% formic acid) and solvent B (acetonitrile with 0.1% formic acid). […] The samples were analyzed in the positive-ionization mode, and the TSQ capillary temperature was set to 350°C. Nitrogen was used as both the sheath gas and the auxiliary gas and was delivered at 30 psi and 15 psi, respectively. The spray voltage and tube lens were set to 3,800 V and 123 V, respectively. The full-width half maximum (FWHM) was set to 0.7. MS data were acquired in the selective ion-recording mode or by collecting full scans from 200 to 600 m/z at 1 scan/s. The mass spectrometer and HPLC system were operated using Xcalibur 2.0.7 software.

rat liver microsomes = experiment: Incubation of F18 with rat liver microsomes, metabolite profiling; format: in vitro ADME; parameters: key: +: Metabolite detected; −: metabolite not detected; conditions: F18 50 μM, 1 h
Protocol: as §1, §2

dog liver microsomes = experiment: Incubation of F18 with dog liver microsomes, metabolite profiling; format: in vitro ADME, beagle dog; parameters: key: +: Metabolite detected; −: metabolite not detected; conditions: F18 50 μM, 1 h
Protocol: as §1, §2

monkey liver microsomes = experiment: Incubation of F18 with monkey liver microsomes, metabolite profiling; format: in vitro ADME; parameters: key: +: Metabolite detected; −: metabolite not detected; conditions: F18 50 μM, 1 h
Protocol: as §1, §2

human liver cytosol = experiment: Incubation of F18 with human liver cytosol, metabolite profiling; format: in vitro ADME; parameters: key: +: Metabolite detected; −: metabolite not detected; conditions: F18 50 μM, 1 h
Protocol: as §1, §2

VSV-G/HIV-1 viruses = experiment: microbe, parasite or virus in culture; format: cell-based; conditions: for IC50: Human immunodeficiency virus 1, HEK-293T, 48 h, read-out: IC50, inhibition of HIV-1 replication
recombinant FMO3 = target: T1, recombinant FMO3 (Homo sapiens, UniProt P31513); experiment: Metabolism of F18 by cDNA-expressed FMO3; format: in vitro ADME; conditions: F18 10 μM, 50 pmol/mL enzyme, 1 h
T1 construct: purchased BD Gentest (Woburn, MA, USA)
T1 sequence (P31513 1-532): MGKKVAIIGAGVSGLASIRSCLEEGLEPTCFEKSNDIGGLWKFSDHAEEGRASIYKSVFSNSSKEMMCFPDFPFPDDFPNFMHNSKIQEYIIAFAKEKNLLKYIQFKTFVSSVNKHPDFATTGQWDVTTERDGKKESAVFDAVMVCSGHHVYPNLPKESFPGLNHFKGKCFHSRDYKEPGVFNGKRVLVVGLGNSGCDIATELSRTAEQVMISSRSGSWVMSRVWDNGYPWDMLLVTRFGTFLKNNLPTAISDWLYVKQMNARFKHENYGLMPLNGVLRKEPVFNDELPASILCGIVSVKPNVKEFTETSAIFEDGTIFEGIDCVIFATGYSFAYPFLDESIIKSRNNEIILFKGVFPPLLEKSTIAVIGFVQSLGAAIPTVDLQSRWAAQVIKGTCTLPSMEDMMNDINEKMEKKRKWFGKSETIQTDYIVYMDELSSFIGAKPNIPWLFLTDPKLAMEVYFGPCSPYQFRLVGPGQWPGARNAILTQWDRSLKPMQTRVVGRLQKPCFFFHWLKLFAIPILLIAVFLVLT
Protocol: To further verify the roles of CYPs and FMOs in the metabolism of F18 in humans, F18 (10 μM) was incubated individually with 14 cDNA-expressed human CYP isozymes (50-pmol/mL CYP1A1, CYP1A2, CYP2A6, CYP2B6, CYP2C8, CYP2C9, CYP2C19, CYP2D6, CYP2E1, CYP2J2, CYP3A4, CYP4F2, CYP4F3, and CYP4A11) and three cDNA-expressed FMO enzymes (50-pmol/mL FMO1, FMO3, and FMO5). The incubation conditions were similar to those used for HLMs (described above), with the exception of the incubating time […]. Samples incubated without NADPH were used as the negative control.

| Compound | F18 metabolite detected in HLM (human liver microsomes) | F18 metabolite detected in RLM (rat liver microsomes) | F18 metabolite detected in DLM (dog liver microsomes) | F18 metabolite detected in MLM (monkey liver microsomes) | F18 metabolite detected in HLcy with NADH (human liver cytosol) | F18 metabolite detected in HLcy with NADPH (human liver cytosol) | IC50 (VSV-G/HIV-1 viruses) | Metabolite detected in incubation with recombinant FMO3 (recombinant FMO3) | Potency against HIV-1 relative to the parent compound (VSV-G/HIV-1 viruses) |
| --- | --- | --- | --- | --- | --- | --- | --- | --- | --- |
| CCCc1cc(=O)oc2c3c(c4c(c12)OC(C)(C)C=C4)O[C@H](CCl)C[C@H]3O (relative stereo) [Metabolite M3-1, trans-12-hydroxy F18] | + | + | + | + | + | + | 34 nM | detected |  |
| CCCc1cc(=O)oc2c3c(c4c(c12)OC(C)(C)C=C4)OC(CO)CC3=O (stereo not drawn) [Metabolite M1] | + | + | + | + | − | − |  | not detected | one fifth |
| CCCc1cc(=O)oc2c3c(c4c(c12)OC(C)(C)C=C4)O[C@H](CCl)C[C@@H]3O (relative stereo) [Metabolite M3-2, cis-12-hydroxy F18] | + | + | + | + | + | + | 51 nM | detected |  |
